One block for each compound: values may come before it.
How the values were obtained:
Assay type in all cases: cell-based
KB (cervical carcinoma) = assay: Growth inhibition, methylene blue dye assay, KB; settings: Homo sapiens, 72 h
Procedure: (§1) Compound 1 was evaluated against 21 human tumor cell lines derived from nine cancer cell types: nasopharyngeal carcinoma (HONE-1, CPT 30, and HONE-cis6), cervical carcinoma (KB, KB-CPT100, KB7D, KB-1036, KB-S15, and KB-vin10), gastric carcinoma (TSGH), breast carcinoma (MCF-7), colorectal carcinoma (HT29), non-small cell lung carcinoma (H460), lymphoma (BJAB and H9), leukemia (CEM and HL 60), and hepatocellular carcinoma (Hep 3B, Hep G2, Huh 7, and Hcc36). […] Compound 140 was tested against the following 15 cell lines: HONE-1, CPT 30, and HONE-cis6, KB, KB-CPT100, KB7D, KB-1036, KB-S 15, and KB-vin10, TSGH, MCF-7, H460, BJAB, H9, and Hep G2. Compound 32 was tested against the following 8 cell lines: HONE-1, KB, TSGH, MCF-7, H460, BJAB, H9, and Hep G2.
(§2) Cells in logarithmic growth phase were cultured at a density of 5000 cells/ml/well in a 24-well plate. Drug-resistant cells were cultured in a medium free of test compounds for 3 days before use. The cells were exposed to various concentrations of a test compound for 72 h. The methylene blue dye assay was used to evaluate the effect of the test compound on cell growth, as has been described in Finlay et al., Anal. Biochem. 1984, 139, 272-277. The IC50 value resulting from 50% inhibition of cell growth was calculated graphically as a comparison with control growth.

[1] = test system: HONE-1 (nasopharyngeal carcinoma); assay: Growth inhibition, methylene blue dye assay, HONE-1; settings: Homo sapiens, HONE1, 72 h
Procedure: as §1, §2

[2] = test system: Hep G2 (hepatocellular carcinoma); assay: Growth inhibition, methylene blue dye assay, Hep G2; settings: Homo sapiens, HepG2, Hep G2, 72 h
Procedure: as §1, §2

human tumor cell lines = assay: Growth inhibition, methylene blue dye assay, panel of tumor cell lines; settings: most of the tested cell lines, 72 h
Procedure: as §1, §2

BJAB (lymphoma) = assay: Growth inhibition, methylene blue dye assay, BJAB; settings: Homo sapiens, 72 h
Procedure: as §1, §2

MCF-7 (breast carcinoma) = assay: Growth inhibition, methylene blue dye assay, MCF7; settings: Homo sapiens, MCF7, 72 h
Procedure: as §1, §2

TSGH (gastric carcinoma) = assay: Growth inhibition, methylene blue dye assay, TSGH; settings: Homo sapiens, 72 h
Procedure: as §1, §2

H9 (lymphoma) = assay: Growth inhibition, methylene blue dye assay, H9; settings: Homo sapiens, H9, 72 h
Procedure: as §1, §2

[3] = test system: H460 (non-small cell lung carcinoma); assay: Growth inhibition, methylene blue dye assay, H460; settings: Homo sapiens, NCI-H460, H460, 72 h
Procedure: as §1, §2

[4] = test system: CPT30 (nasopharyngeal carcinoma); assay: Growth inhibition, methylene blue dye assay, CPT30; settings: Homo sapiens; CPT30, drug-resistant, camptothecin-driven selection, 72 h
Procedure: as §1, §2

[5] = test system: KB-1036 (cervical carcinoma); assay: Growth inhibition, methylene blue dye assay, KB-1036; settings: Homo sapiens; KB-1036, D-501036 driven selection, 72 h
Procedure: as §1, §2

[6] = test system: HONE-cis6 (nasopharyngeal carcinoma); assay: Growth inhibition, methylene blue dye assay, HONE-cis6; settings: Homo sapiens; HONE-cis6, drug-resistant, cisplatin-driven selection, 72 h
Procedure: as §1, §2

[7] = test system: KB7D (cervical carcinoma); assay: Growth inhibition, methylene blue dye assay, KB7D; settings: Homo sapiens, VP-16-driven selection, 72 h
Procedure: as §1, §2

[8] = test system: KB-S15 (cervical carcinoma); assay: Growth inhibition, methylene blue dye assay, KB-S15; settings: Homo sapiens; KB-S15, drug-resistant, paclitaxel-driven selection, 72 h
Procedure: as §1, §2

[9] = test system: KB-CPT100 (cervical carcinoma); assay: Growth inhibition, methylene blue dye assay, KB-CPT100; settings: Homo sapiens, KBCPT100; KB-CPT100, drug-resistant, camptothecin-driven selection, 72 h
Procedure: as §1, §2

[10] = test system: KB-vin10 (cervical carcinoma); assay: Growth inhibition, methylene blue dye assay, KB-vin10; settings: Homo sapiens; KB-vin10, vincristine-driven selection, 72 h
Procedure: as §1, §2

[11] = test system: Human cervical carcinoma KB cells; assay: Growth inhibition assay, KB cells (MTS); settings: 72 h, read-out: IC50 (concentration causing 50% cell growth inhibition)
Procedure: Anticancer activities of the compounds of this invention were evaluated using a growth inhibition assay described in Kuo et al., Cancer Res. 2004, 64(13), 4621-4628.
Human cervical carcinoma KB cells were maintained in plastic dishes in DMEM medium supplemented with 10% fetal bovine serum. For in vitro treatment, tumor cells were seeded in […] of culture medium/well in 96-well plates to a final cell density of 6×10^3 cell/mL and incubated in a CO2 incubator at 37° C. for 24 h. The cells were treated with at least five different concentrations of a test compound, and incubated in a CO2 incubator at 37° C. for 72 h. The number of viable cells was estimated using MTS assay and absorbance was measured at 490 nm. For each test compound, dose-response curves were measured with at least five different drug concentrations, and the concentration causing 50% cell growth inhibition (IC50) compared with the control was calculated.

[12] = test system: Hcc36 (hepatocellular carcinoma); assay: Growth inhibition, methylene blue dye assay, Hcc36; settings: Homo sapiens, Hcc36, 72 h
Procedure: as §1, §2

[13] = test system: Hep 3B (hepatocellular carcinoma); assay: Growth inhibition, methylene blue dye assay, Hep 3B; settings: Homo sapiens, Hep3B, 72 h
Procedure: as §1, §2

CEM (leukemia) = assay: Growth inhibition, methylene blue dye assay, CEM; settings: Homo sapiens, 72 h
Procedure: as §1, §2

[14] = test system: Huh 7 (hepatocellular carcinoma); assay: Growth inhibition, methylene blue dye assay, Huh 7; settings: Homo sapiens, Huh 7, 72 h
Procedure: as §1, §2

[15] = test system: HT29 (colorectal carcinoma); assay: Growth inhibition, methylene blue dye assay, HT29; settings: Homo sapiens, HT-29, HT29, 72 h
Procedure: as §1, §2

HL 60 (leukemia) = assay: Growth inhibition, methylene blue dye assay, HL60; settings: Homo sapiens, HL60, 72 h
Procedure: as §1, §2

SMILES: Cc1cc(=O)oc2c1ccc1oc(C(=O)c3cccc(OCCCCCCO[Si](C)(C)C(C)(C)C)c3)c(-c3ccccc3)c12 [Compound 193]
IC50 [11]: 101 to 999 nM

SMILES: Cc1cc(=O)oc2c1ccc1oc(C(=O)c3ccc(-c4ccccc4)cc3)c(-c3ccccc3)c12 [Compound 52]
IC50 [11]: 1000 to 10000 nM

SMILES: CCCc1c(C(=O)c2ccccc2)oc2ccc3c(C)cc(=O)oc3c12 [Compound 155]
IC50 [11]: 101 to 999 nM

SMILES: Cc1cc(=O)oc2c1ccc1oc(C(=O)c3ccc4ccccc4c3)c(-c3ccc(F)cc3)c12 [Compound 220]
IC50 [11]: 101 to 999 nM

SMILES: Cc1cc(=O)oc2c1ccc1oc(C(=O)c3cccs3)c(-c3ccc(Br)cc3)c12 [Compound 254]
IC50 [11]: 101 to 999 nM

SMILES: CCCCCCCCCCc1c(C(=O)c2ccccc2)oc2ccc3c(C)cc(=O)oc3c12 [Compound 158]
IC50 [11]: 1000 to 10000 nM

SMILES: Cc1cc(=O)oc2c1ccc1oc(C(=O)c3ccc(Br)cc3)c(-c3ccc(Br)cc3)c12 [Compound 211]
IC50 [11]: 1000 to 10000 nM

SMILES: Cc1cc(=O)oc2c1ccc1oc(C(=O)c3ccccc3)c(-c3ccco3)c12 [Compound 159]
IC50 [11]: 101 to 999 nM

SMILES: Cc1cc(=O)oc2c1ccc1oc(C(=O)c3cccc(OCCCO[Si](C)(C)C(C)(C)C)c3)c(-c3ccccc3)c12 [Compound 190]
IC50 [11]: 101 to 999 nM

SMILES: Cc1cc(=O)oc2c1ccc1oc(C(=O)c3cc(F)ccc3F)c(-c3ccc(F)cc3)c12 [Compound 221]
IC50 [11]: 101 to 999 nM

SMILES: Cc1cc(=O)oc2c1ccc1oc(C(=O)c3ccccc3)c(-c3cccc4ccccc34)c12 [Compound 206]
IC50 [11]: 101 to 999 nM

SMILES: Cc1cc(=O)oc2c1ccc1oc(C(=O)c3cccc(OCCO[Si](C)(C)C(C)(C)C)c3)c(-c3ccccc3)c12 [Compound 189]
IC50 [11]: 101 to 999 nM

SMILES: Cc1cc(=O)oc2c1ccc1oc(C(=O)c3ccccc3)cc12 [Compound 153]
IC50 [11]: 101 to 999 nM

SMILES: Cc1cc(=O)oc2c1ccc1sc(C(=O)c3ccccc3)c(-c3ccccc3)c12 [Compound 26]
IC50 [11]: 101 to 999 nM

Continued, values first:

IC50 (KB (cervical carcinoma)): 41 nM | IC50 [1]: 55 nM | IC50 [2]: 5500 nM | IC50 (human tumor cell lines): < 150 nM | IC50 (BJAB (lymphoma)): 45 nM | IC50 (MCF-7 (breast carcinoma)): 150 nM | IC50 (TSGH (gastric carcinoma)): 150 nM | IC50 (H9 (lymphoma)): 124 nM | IC50 [3]: 40 nM
SMILES: COc1ccc(C(=O)c2oc3ccc4c(C)cc(=O)oc4c3c2-c2ccccc2)cc1 [Compound 32]

IC50 (KB (cervical carcinoma)): 7.7 nM | IC50 [1]: 3 nM | IC50 [4]: 10.5 nM | IC50 [2]: 2600 nM | IC50 [5]: 13 nM | IC50 (human tumor cell lines): < 10 nM | IC50 [6]: 10 nM | IC50 (BJAB (lymphoma)): 60 nM | IC50 (MCF-7 (breast carcinoma)): 13 nM | IC50 (TSGH (gastric carcinoma)): 41 nM | IC50 [7]: 8 nM | IC50 (H9 (lymphoma)): 20 nM | IC50 [8]: 10 nM | IC50 [9]: 9 nM | IC50 [10]: 10 nM | IC50 [3]: 3 nM
SMILES: Cc1cc(=O)oc2c1ccc1oc(C(=O)c3ccccc3)c(-c3ccc(Br)cc3)c12 [Compound 140]

IC50 [11]: 101 to 999 nM
SMILES: CC(=O)OCC1C(OCCOc2cccc(C(=O)c3oc4ccc5c(C)cc(=O)oc5c4c3-c3ccccc3)c2)OC(OC(C)=O)C(OC(C)=O)C1OC(C)=O (stereo not drawn) [Compound 194]

IC50 [11]: 1000 to 10000 nM
SMILES: CCOC(=O)c1cc(C(=O)c2oc3ccc4c(C)cc(=O)oc4c3c2-c2ccccc2)on1 [Compound 110]

IC50 [11]: 101 to 999 nM
SMILES: Cc1cc(=O)oc2c1ccc1oc(C(=O)c3ccc(Br)cc3)c(-c3ccccc3)c12 [Compound 50]

IC50 [11]: 101 to 999 nM
SMILES: Cc1cc(=O)oc2c1ccc1oc(C(=O)c3ccccc3)c(-c3ccc(Cl)c(Cl)c3)c12 [Compound 224]

IC50 [11]: 1000 to 10000 nM
SMILES: Cc1cc(=O)oc2c1ccc1oc(C(=O)c3cccn3C)c(-c3ccccc3)c12 [Compound 102]

IC50 [11]: 1000 to 10000 nM
SMILES: Cc1cc(=O)oc2c1ccc1oc(C(=O)c3cc(-c4ccc(Cl)cc4)no3)c(-c3ccccc3)c12 [Compound 112]

IC50 [11]: 1000 to 10000 nM
SMILES: Cc1cc(=O)oc2c1ccc1oc(C(=O)c3cccc(OCCCCN4CCN(C)CC4)c3)c(-c3ccccc3)c12 [Compound 91]

IC50 [11]: 101 to 999 nM
SMILES: Cc1cc(=O)oc2c1ccc1oc(C(=O)c3cccc(OCCN[C@@]45C[C@@H]6C[C@@H](C[C@@](O)(C6)C4)C5)c3)c(-c3ccccc3)c12 [Compound 183]

IC50 [11]: 101 to 999 nM
SMILES: Cc1ccc(C(=O)c2oc3ccc4c(C)cc(=O)oc4c3c2-c2ccccc2)c(C)c1 [Compound 62]

IC50 (KB (cervical carcinoma)): 1.3 to 1.8 nM | IC50 [12]: 10800 nM | IC50 [1]: 2 nM | IC50 [4]: 8.5 nM | IC50 [2]: 3500 nM | IC50 [5]: 4 nM | IC50 (human tumor cell lines): < 10 nM | IC50 [13]: 35000 nM | IC50 [6]: 4.5 nM | IC50 (BJAB (lymphoma)): 110 nM | IC50 (MCF-7 (breast carcinoma)): 4 nM | IC50 (TSGH (gastric carcinoma)): 17 nM | IC50 (CEM (leukemia)): 1000 nM | IC50 [7]: 0.8 nM | IC50 [14]: 26700 nM | IC50 [15]: 7 nM | IC50 (H9 (lymphoma)): 3.5 nM | IC50 [8]: 0.5 nM | IC50 [9]: 6.25 nM | IC50 [10]: 2.5 nM | IC50 (HL 60 (leukemia)): 1000 nM | IC50 [3]: 0.5 nM
SMILES: Cc1cc(=O)oc2c1ccc1oc(C(=O)c3ccccc3)c(-c3ccccc3)c12 [Compound 1, 8-benzoyl-4-methyl-9-phenyl-furo[2,3-h]chromen-2-one]

IC50 [11]: 101 to 999 nM
SMILES: Cc1cc(=O)oc2c1ccc1oc(C(=O)c3ccc(Cl)c(Cl)c3)c(-c3ccccc3)c12 [Compound 58]

IC50 [11]: 101 to 999 nM
SMILES: Cc1cc(=O)oc2c1ccc1oc(C(=O)c3cccc(OCCCCN(C)C)c3)c(-c3ccccc3)c12 [Compound 88]

IC50 [11]: 101 to 999 nM
SMILES: Cc1ccc(C(=O)c2oc3ccc4c(C)cc(=O)oc4c3c2-c2ccccc2)o1 [Compound 94]

IC50 [11]: 101 to 999 nM
SMILES: Cc1cc(=O)oc2c1ccc1oc(C(=O)c3ccccc3)c(-c3ccc(Cl)cc3)c12 [Compound 137]

IC50 [11]: 1000 to 10000 nM
SMILES: Cc1cc(=O)oc2c1ccc1oc(/C(=N/NC(N)=O)c3ccccc3)c(-c3ccccc3)c12 [Compound 174]

IC50 [11]: 101 to 999 nM
SMILES: Cc1cc(=O)oc2c1ccc1oc(C(=O)c3ccc(OC(F)(F)F)cc3)c(-c3ccccc3)c12 [Compound 38]

IC50 [11]: 101 to 999 nM
SMILES: Cc1cc(=O)oc2c1ccc1oc(C(=O)c3ccc(F)cc3)c(-c3ccccc3)c12 [Compound 46]

IC50 [11]: 101 to 999 nM
SMILES: Cc1cc(=O)oc2c1ccc1oc(C(=O)c3cccc(OCCCN4CCN(C)CC4)c3)c(-c3ccccc3)c12 [Compound 90]

Source: patent US8058427B2, “Coumarin compounds and their use for treating cancer” (National Health Research Institutes, priority 2008, dated 2011)
